According to patent publication US20110144156A1, “A3 ADENOSINE RECEPTOR ALLOSTERIC MODULATORS” (UNIVERSITEIT LEIDEN, priority 2008, published 2011):

What was measured:
[1] = biological target: T1, human A3ARs (Homo sapiens, UniProt P0DMS8); assay: Dissociation kinetics of [125I]I-AB-MECA from human A3ARs (allosteric effect); details: 10 μM test compound; binding after 1.5 or 2 hours of dissociation, control without modulator set at 100%; brackets = result of each of two assays; read-out: hA3ARAg Dissociation at 10 μM
T1 construct: expressed in transfected cells; host or cells: CHO (Chinese hamster ovary) cells; membrane preparation
T1 sequence (P0DMS8 1-318): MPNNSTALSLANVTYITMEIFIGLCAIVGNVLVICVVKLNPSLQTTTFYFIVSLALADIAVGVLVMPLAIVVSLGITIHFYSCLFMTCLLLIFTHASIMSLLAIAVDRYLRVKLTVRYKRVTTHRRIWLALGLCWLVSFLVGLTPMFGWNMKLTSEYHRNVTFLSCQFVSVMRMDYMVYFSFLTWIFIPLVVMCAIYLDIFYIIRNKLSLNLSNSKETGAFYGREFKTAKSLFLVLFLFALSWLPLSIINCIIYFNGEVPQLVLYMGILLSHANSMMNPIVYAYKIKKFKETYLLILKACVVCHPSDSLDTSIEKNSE
Procedure: (§1) CHO (Chinese hamster ovary) cells expressing the recombinant human A3 receptors were cultured in DMEM and F12 (1:1) supplemented with 10% fetal bovine serum, 100 units/ml penicillin, 100 μg/ml streptomycin and 2 μmol/ml glutamine. Cells were harvested by trypsinization. After homogenization and suspension, cells were centrifuged at 500 g for 10 min, and the pellet was re-suspended in 50 mM Tris.HCl buffer (pH 7.4) containing 10 mM MgCl2. The suspension was homogenized with an electric homogenizer for 10 sec, and was then re-centrifuged at 20,000 g for […] at 4° C. The resultant pellets were resuspended in buffer in the presence of 3 Units/mL adenosine deaminase, and the suspension was stored at −80° C. until the binding experiments. The protein concentration was measured using the Bradford assay.
The dissociation of [^125I]I-AB-MECA was measured as follows. Membranes (20 μg) were pre-incubated at 25° C. with 0.5 nM [^125I]I-AB-MECA, in a total volume of 100 μl of Tris-HCl buffer (50 mM, pH 8.0) containing 10 mM MgCl2, and 1 mM EDTA for 60 min. The dissociation was then initiated by the addition of 3 μM Cl-IB-MECA with or without allosteric modulators. The time course of dissociation of total binding was measured by rapid filtration at appropriate time intervals. Nonspecific binding was measured after 60-min incubation in the presence of 3 μM Cl-IB-MECA. Further assay was as described above.

[2] = biological target: T1, human A3ARs; assay: Competitive binding assay to the human A3 AR with [125I]I-AB-MECA; details: 1 h, 10 μM test compound; [125I]I-AB-MECA radioligand; CHO cell membranes expressing human A3AR; brackets = individual assays; read-out: % displacement at 10 μM (hA3AR)
Procedure: as §1
Each tube in the competitive binding assay contained 100 μl membrane suspension (20 μg protein), 50 μl [^125I]I-AB-MECA (0.5 nM), and 50 μl of increasing concentrations of the test modulators in Tris.HCl buffer (50 mM, pH 8.0) containing 10 mM MgCl2, 1 mM EDTA. Nonspecific binding was determined using 10 μM of 5′-N-ethylcarboxamidoadenosine in the buffer. The mixtures were incubated at 25° C. for 60 min. Binding reactions were terminated by filtration through Whatman GF/B filters under reduced pressure using a MT-24 cell harvester (Brandell, Gaithersburgh, Md., USA). Filters were washed three times with 9 mL ice-cold buffer. Radioactivity was determined in a Beckman 5500B γ-counter.
Binding parameters were calculated using Prism 5.0 software (GraphPAD, San Diego, Calif., USA). IC50 values obtained from competition curves were converted to Ki values using the Cheng-Prusoff equation. Data were expressed as mean±standard error.

Row | activity at 10 µM [1] [%] | inhibition at 10 µM [2] [%] | SMILES
1 | 149 | 51 | O=C(Nc1cc(Nc2ccc(Cl)c(Cl)c2)nc2ccccc12)C1CCC1 [Compound 34, N-{2-[(3,4-dichlorophenyl)amino]quinolin-4-yl}cyclobutanecarboxamide]
2 | 114 | 14 | O=C(Nc1cc(NC2CCCC2)nc2ccccc12)C1CCCC1 [Compound 23, N-[2-(cyclopentylamino)quinolin-4-yl]cyclopentanecarboxamide]
3 | 220 | 64 | Cc1ccc(Nc2cc(NC(=O)C3CCCCC3)c3ccccc3n2)cc1 [Compound 27, N-{2-[(4-methylphenyl)amino]quinolin-4-yl}cyclohexanecarboxamide]
4 | 100 | 76 | O=C(Nc1cc(Nc2ccccc2)nc2ccccc12)c1ccccc1 [Compound 29, N-(2-anilinoquinolin-4-yl)benzamide]
5 |  | < 50 | O=C(Nc1cc(Nc2ccc3c(c2)CCC3)nc2ccccc12)C1CCCCC1 [Compound 28, N-[2-(2,3-dihydro-1H-inden-5-ylamino)quinolin-4-yl]cyclohexanecarboxamide]
6 | 112 | 37 | O=C(Nc1cc(Nc2ccc(Cl)c(Cl)c2)nc2ccccc12)c1ccccc1 [Compound 30, N-{2-[(3,4-dichloro-phenyl)amino]quinolin-4-yl}benzamide]
7 | 102 | 90 | O=C(Nc1cc(Nc2ccc3cn[nH]c3c2)nc2ccccc12)C1CCCC1 [Compound 24, N-[2-(1H-indazol-6-ylamino)quinolin-4-yl]cyclopentanecarboxamide]
8 | 145 | 61 | O=C(Nc1cc(Nc2ccccc2)nc2ccccc12)C1CCCC1 [Compound 16, N-(2-anilinoquinolin-4-yl)cyclopentanecarboxamide]
9 | 134 | 35 | COc1ccc(Nc2cc(NC(=O)C3CCCC3)c3ccccc3n2)cc1 [Compound 21, N-{2-[(4-methoxyphenyl)amino]quinolin-4-yl}cyclopentanecarboxamide]
10 | 119 | 66 | O=C(Nc1cc(Nc2ccccc2)nc2ccccc12)C1CCC1 [Compound 33, N-(2-anilinoquinolin-4-yl)cyclobutanecarboxamide]

More lines, now with the values behind:

Row | SMILES | activity at 10 µM [1] [%] | inhibition at 10 µM [2] [%]
11 | O=C(Nc1cc(Nc2ccccc2)nc2ccccc12)c1ccco1 [Compound 31, N-(2-anilinoquinolin-4-yl)-2-furamide] | 100 | 60
12 | O=C(Nc1cc(Nc2ccc(Cl)c(Cl)c2)nc2ccccc12)C1CCCCC1 [Compound 26, N-{2-[(3,4-dichlorophenyl)amino]quinolin-4-yl}cyclohexanecarboxamide] | ≤ 249 | 
13 | O=C(Nc1cc(Nc2ccc(Cl)c(Cl)c2)nc2ccccc12)C1CCCC1 [Compound 17, N-{2-[(3,4-dichlorophenyl)amino]quinolin-4-yl}cyclopentanecarboxamide] | 169 | 50
14 | O=C(Nc1cc(Nc2ccc(Cl)c(Cl)c2)nc2ccccc12)c1ccco1 [Compound 32, N-{2-[(3,4-dichlorophenyl)amino]quinolin-4-yl}-2-furamide] | 96 | 13
15 | Cc1ccc(Nc2cc(NC(=O)C3CCCC3)c3ccccc3n2)cc1 [Compound 19, N-{2-[(4-methylphenyl)amino]quinolin-4-yl}cyclopentanecarboxamide] | 165 | 63
16 | O=C(Nc1cc(NCc2ccccc2)nc2ccccc12)C1CCCC1 [Compound 18, N-[2-(benzylamino)quinolin-4-yl]cyclopentanecarboxamide] | 107 | 28
17 | O=C(Nc1cc(Nc2ccc3c(c2)CCC3)nc2ccccc12)C1CCCC1 [Compound 20, N-[2-(2,3-dihydro-1H-inden-5-ylamino)quinolin-4-yl]cyclopentanecarboxamide] | 147 | 62
